Reference: US20200215036A1, “BENZIMIDAZOLE COMPOUNDS AS KINASE INHIBITORS” (GB005, Inc., priority 2017, published 2020)

Experiments:
TEC = molecular target: T1, TEC (Homo sapiens, UniProt P42680); test: Biochemical kinase assay (Nanosyn, micro-fluidic detection), TEC; conditions: 12 concentrations, 3 hours incubation, 1 uM peptide substrate
T1 sequence (P42680 1-631): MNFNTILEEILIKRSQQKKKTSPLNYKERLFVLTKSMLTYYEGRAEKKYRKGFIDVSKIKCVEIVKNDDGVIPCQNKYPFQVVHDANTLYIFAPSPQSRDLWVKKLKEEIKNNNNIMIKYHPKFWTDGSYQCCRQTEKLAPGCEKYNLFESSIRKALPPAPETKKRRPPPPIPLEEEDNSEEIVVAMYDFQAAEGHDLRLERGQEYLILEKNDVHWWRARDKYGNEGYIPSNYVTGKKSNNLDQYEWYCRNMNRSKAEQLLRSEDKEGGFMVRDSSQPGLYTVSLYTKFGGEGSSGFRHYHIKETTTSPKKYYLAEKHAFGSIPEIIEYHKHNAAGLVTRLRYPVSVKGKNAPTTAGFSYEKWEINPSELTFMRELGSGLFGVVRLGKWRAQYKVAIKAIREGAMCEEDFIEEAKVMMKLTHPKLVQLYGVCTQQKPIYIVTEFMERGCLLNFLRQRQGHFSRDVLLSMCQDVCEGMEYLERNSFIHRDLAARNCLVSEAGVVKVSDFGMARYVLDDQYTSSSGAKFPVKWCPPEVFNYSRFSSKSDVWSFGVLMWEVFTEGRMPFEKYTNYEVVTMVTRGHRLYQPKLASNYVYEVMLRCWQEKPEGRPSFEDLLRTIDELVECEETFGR
Protocol: (§1) The in vitro kinase assays were performed at Nanosyn (Santa Clara, Calif.) utilizing micro-fluidic detection Technology. The test compounds were serially pre-diluted in DMSO and added, by the acoustic dispensing (Labcyte® 550), directly to 384we11 assay plates into 10 uL of a buffer with enzyme comprising: 100 mM HEPES, pH7.5, 5 mM MgCl2, 0.1% bovine serum albumin, 1 mM DTT, 0.01% Triton X-100 and the enzyme. Final DMSO concentration was maintained at 1% in all samples, including the controls. The reactions were initiated by addition of ATP (to the specified concentration) and the fluorescently labeled peptide substrate to a final concentration of 1 uM, and incubated for 3 hours at […]. Following incubation, the reactions were quenched by addition of 40 μL of termination buffer (100 mM HEPES, pH7.5, 0.01% Triton X-100, 50 mM EDTA). Terminated plates were analyzed using Caliper LabChip® 3000 microfluidic electrophoresis instrument (Caliper Life Sciences/Perkin Elmer). The enzymatic modification of the peptide substrate (phosphorylation) results in a change of net charge enabling electrophoretic separation of product from substrate. As substrate and product are separated by electrophoresis, two peaks of fluorescence are observed. Change in the relative fluorescence intensity of the substrate and product peaks was the parameter measured, reflecting enzyme activity. In the presence of inhibitor, the ratio between product and substrate is altered: signal of the product decreases, while the signal of the substrate increases. Activity in each test sample was determined as the product to sum ratio (PSR): P/(S+P), where P is the peak height of the product and S is the peak height of the FAM-cAMP substrate. For each compound, enzyme activity was measured at 12 concentrations spaced by 3× dilution intervals. Negative control samples (0%−inhibition in the absence of inhibitor, DMSO only) and positive control samples (100%−inhibition, in the absence of enzyme or in the presence of control inhibitor) were assembled in replicates of four and were used to calculate %−inhibition values in the presence of compounds. Percent inhibition (Pinh) was determined using the following equation: Pinh=(PSR0%−PSRinh)/(PSR0%−PSR100%)*100, where PSRinh is the product sum ratio in the presence of inhibitor, PSR0% is the product sum ratio in the absence of inhibitor and PSR100% is the product sum ratio in 100%-inhibition control samples. To determine IC50 values, the inhibition curves (Pinh versus inhibitor concentration) were fitted by 4 parameter sigmoid dose-response model using XLfit software (IDBS).

ITK = molecular target: T2, ITK (Homo sapiens, UniProt Q08881); test: Biochemical kinase assay (Nanosyn, micro-fluidic detection), ITK; conditions: 12 concentrations, 3 hours incubation, 1 uM peptide substrate
T2 sequence (Q08881 1-620): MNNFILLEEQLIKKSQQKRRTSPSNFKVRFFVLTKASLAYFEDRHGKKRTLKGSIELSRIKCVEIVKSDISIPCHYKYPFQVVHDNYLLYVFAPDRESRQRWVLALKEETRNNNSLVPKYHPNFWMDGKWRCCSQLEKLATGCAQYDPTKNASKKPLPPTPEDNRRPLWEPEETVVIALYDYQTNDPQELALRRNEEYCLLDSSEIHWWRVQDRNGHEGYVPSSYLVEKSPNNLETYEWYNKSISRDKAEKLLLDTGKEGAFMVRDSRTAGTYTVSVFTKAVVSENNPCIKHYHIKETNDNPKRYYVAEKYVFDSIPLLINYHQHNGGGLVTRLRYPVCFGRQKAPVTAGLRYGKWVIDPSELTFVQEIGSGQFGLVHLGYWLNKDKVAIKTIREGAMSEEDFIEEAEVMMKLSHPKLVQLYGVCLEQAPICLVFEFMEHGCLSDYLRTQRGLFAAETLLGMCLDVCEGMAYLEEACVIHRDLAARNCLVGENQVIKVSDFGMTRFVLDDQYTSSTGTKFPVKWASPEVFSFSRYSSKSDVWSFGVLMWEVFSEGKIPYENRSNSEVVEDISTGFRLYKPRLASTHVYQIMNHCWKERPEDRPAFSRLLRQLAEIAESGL
Protocol: as §1

TXK = molecular target: T3, TXK (Homo sapiens, UniProt P42681); test: Biochemical kinase assay (Nanosyn, micro-fluidic detection), TXK; conditions: for IC50: 12 concentrations, 3 hours incubation, 1 uM peptide substrate; for ITK/TXK Ratio: ratio of ITK IC50 to TXK IC50
T3 sequence (P42681 1-527): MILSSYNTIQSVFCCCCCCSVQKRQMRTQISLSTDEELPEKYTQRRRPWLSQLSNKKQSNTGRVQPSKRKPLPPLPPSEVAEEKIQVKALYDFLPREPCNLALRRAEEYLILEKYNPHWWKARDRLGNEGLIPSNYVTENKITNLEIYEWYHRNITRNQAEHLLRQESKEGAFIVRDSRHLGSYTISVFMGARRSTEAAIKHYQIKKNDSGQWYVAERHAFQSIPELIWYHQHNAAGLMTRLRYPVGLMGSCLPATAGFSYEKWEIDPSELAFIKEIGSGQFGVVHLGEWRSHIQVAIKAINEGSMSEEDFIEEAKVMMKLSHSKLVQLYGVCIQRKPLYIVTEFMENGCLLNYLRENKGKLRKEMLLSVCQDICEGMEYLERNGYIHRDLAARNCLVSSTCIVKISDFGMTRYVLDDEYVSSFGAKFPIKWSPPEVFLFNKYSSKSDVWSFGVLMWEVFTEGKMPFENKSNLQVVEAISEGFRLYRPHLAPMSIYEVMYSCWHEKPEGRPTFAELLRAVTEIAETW
Protocol: as §1

BTK = BTK (Homo sapiens, UniProt Q06187); test: Biochemical kinase assay (Nanosyn, micro-fluidic detection), BTK; conditions: 12 concentrations, 3 hours incubation, 1 uM peptide substrate
Protocol: as §1

Sequence of BTK (Q06187 whole entry): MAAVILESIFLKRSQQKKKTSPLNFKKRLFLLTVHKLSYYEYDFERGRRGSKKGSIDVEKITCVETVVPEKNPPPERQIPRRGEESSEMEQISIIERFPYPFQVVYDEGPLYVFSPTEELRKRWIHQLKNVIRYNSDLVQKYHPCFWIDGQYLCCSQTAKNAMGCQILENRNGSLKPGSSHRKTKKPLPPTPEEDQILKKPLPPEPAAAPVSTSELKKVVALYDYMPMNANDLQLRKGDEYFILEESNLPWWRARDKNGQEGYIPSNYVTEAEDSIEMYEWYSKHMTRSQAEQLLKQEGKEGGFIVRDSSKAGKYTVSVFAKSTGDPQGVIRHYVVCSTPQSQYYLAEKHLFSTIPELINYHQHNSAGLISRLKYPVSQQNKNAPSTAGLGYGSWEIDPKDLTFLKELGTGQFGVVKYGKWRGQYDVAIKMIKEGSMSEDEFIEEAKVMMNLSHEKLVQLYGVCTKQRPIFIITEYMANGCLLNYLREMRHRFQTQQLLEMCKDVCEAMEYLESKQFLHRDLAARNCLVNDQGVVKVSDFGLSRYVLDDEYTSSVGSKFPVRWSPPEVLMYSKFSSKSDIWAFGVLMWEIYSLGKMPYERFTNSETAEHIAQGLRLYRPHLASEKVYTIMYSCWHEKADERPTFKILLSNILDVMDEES

Row | IC50 (TEC) [nM] | IC50 (ITK) [nM] | IC50 (TXK) [nM] | ITK/TXK Ratio (TXK) | IC50 (BTK) [nM] | Compound
1 | 95.5 | 127 | 5.28 | 24.1 | 16.1 | C=CC(=O)N1CC[C@]2(C1)C[C@H](n1c(NC(=O)c3cc(C)no3)nc3cc(CN4CCCC4)ccc31)C2 [Compound 1]
2 | 11.1 | 40.9 | 3.02 | 13.5 | 14.7 | C=CC(=O)N1CC[C@]2(C1)C[C@H](n1c(NC(=O)c3cc(C)no3)nc3cc(CN4CCOCC4)ccc31)C2 [Compound 2]
3 | 43.9 | 80.9 | 3.48 | 23.2 | 17.9 | C=CC(=O)N1CC[C@]2(C1)C[C@H](n1c(NC(=O)c3cc(C)no3)nc3cc(CN4CCN(C)CC4)ccc31)C2 [Compound 3]
4 | 96.3 | 553 | 1.42 | 390 | 12 | C=CC(=O)N1CC[C@]2(C1)C[C@H](n1c(NC(=O)c3cc(C(C)C)no3)nc3cc(CN4CCCC4)ccc31)C2 [Compound 4]
5 | 50.5 | 576 | 1.25 | 461 | 7.65 | C=CC(=O)N1CC[C@]2(C1)C[C@H](n1c(NC(=O)c3cc(C4CCC4)no3)nc3cc(CN4CCCC4)ccc31)C2 [Compound 5]
6 | 105 | > 1000 | 1.78 | >561 | 10.1 | C=CC(=O)N1CC[C@]2(C1)C[C@H](n1c(NC(=O)c3cc(C4CCCCC4)no3)nc3cc(CN4CCCC4)ccc31)C2 [Compound 6]
7 | 529 | 536 | 5.04 | – | 59.7 | C=CC(=O)N1CC[C@]2(C1)C[C@H](n1c(NC(=O)c3cc(C(C)(C)C)no3)nc3cc(CN4CCCC4)ccc31)C2 [Compound 7]
8 | 136 | 369 | 1.97 | 187 | 25.7 | C=CC(=O)N1CC[C@]2(C1)C[C@H](n1c(NC(=O)c3cc(-c4ccccc4)no3)nc3cc(CN4CCCC4)ccc31)C2 [Compound 8]
